# Measurements taken from patent publication US20140079836A1, “METHODS AND COMPOSITIONS FOR ALTERING HEALTH, WELLBEING, AND LIFESPAN” (LifeSpan Extension, LLC, priority 2008, published 2014).
# “And” between values parts separate entries of the source, which are not always exact repeats. Identical values can stand only once.
# System: entire human genome (gene expression profile)
# Assay: Agilent whole human genome array, skin fibroblasts AG07999, antioxidant with or without UV
# Type: cell-based
# Experimental: Cell cultures: A human skin fibroblast cell culture was obtained through the Coriell Cell Repository from the National Institute on Aging Cell Repository. […] Culture media: Cells were grown in Minimal Essential Medium supplemented with 10% fetal bovine serum, 2 mM L-glutamine, 2 mM Glutamax I. […] All cultures were incubated at 37° C. with 5% CO2 in a humidified chamber. […] On Day 5 after 24 hours of exposure to test conditions, the cells were isolated and the RNA isolated using the RT^2q PCR-grade RNA isolation kit (Superarray Bioscience Corporation). […] Analysis of Agilent Whole Human Genome Arrays: RNA taken from both samples was sent to Cogenics, Inc. Morrisville, N.C. Cogenics, Inc. is a leading, state-of-the-art, microarray service provider that facilitates and accelerates transcriptome profiling and gene discovery processes for industrial and academic researchers. Cogenics' procedure for processing samples is as follows: RNA samples are received and analyzed by Cogenics, Inc. using rigorous standardized procedures that are designed to ensure quality and chain of custody. Each sample undergoes a thorough quality analysis using an Agilent Bioanalyzer microfluidics device, and is precisely quantified using a Nanodrop-1000 spectro-photometer. When the Agilent Oligonucleotide Microarray Platform is utilized, samples are fluorescently labeled using the Agilent Low-Input Linear Amplification Kit. Upon completion of this process, the labeled cRNA products are assessed using the same processes described above. These labeled samples are then fragmented and hybridized to oligonucleotide microarrays. The microarrays are washed and then scanned using an Agilent DNA Microarray Scanner with Sure Scan technology. Data is extracted from the images produced by the scanner using Agilent's Feature Extraction software. At this point, the scanned image is visually inspected for defects, and the extracted data is statistically analyzed to ensure quality of the assay. Extracted data and images can be loaded into Rosetta Resolver Gene Expression Data Analysis System for in-depth analysis, both from a quality standpoint, as well as to develop biological understanding. […] A table was generated and provided as a tab-delimited text file. This file will contain the log ratio, fold-change, log ratio p-value, etc. for every transcript measured by the microarray. Using Rosetta Resolver, a single ratio comparison was compiled based on the results of the two fluorophore reversal hybridization performed in the context of this project. The ratios were calculated such that the Tx sample was in the numerator and the UnTx sample was in the denominator. A table was generated, saved as tab-delimited text files, and is provided on the DVD that accompanied this report in the “Objective—1” subdirectory or the “Data_Analysis” directory. These files contain the log ratio, fold-change, log ratio p-value, etc. for every transcript present on the microarray. […] A table for will be generated and provided as a tab-delimited text file. The file will contain the log ratio, fold-change, log ratio p-value, etc. for only the differentially expressed transcripts within the context of the comparison. […] These criteria were applied to the comparison made in Objective 1. A table was generated, saved as tab-delimited text files, and is provided on the DVD that accompanied this report in the “Objective—1” subdirectory or the “Data_Analysis” directory. […] Cell cultures: A human skin fibroblast cell culture (or cultures) will be obtained through the Coriell Cell Repository from the National Institute on Aging Cell Repository. […] Culture media: Cells will be grown in Minimal Essential Medium supplemented with 10% fetal bovine serum, 2 mM L-glutamine, 2 mM Glutamax I.
compound,measurement,setting,value
"COC1=C(OC)C(=O)C(CCCCCCCCCCO)=C(C)C1=O [Idebenone, 6-(10-hydroxydecyl)-2,3-dimethoxy-5-methyl-1,4-benzoquin-one]","fold change of gene expression (sequence name in c0), Idebenone + UVB",,n.s.
same,ABL1 Expression,Alone,1.0
same,ACE Expression,Alone,−1.0
same,ACTB Expression,Alone,1.1 and 1.0
same,AK3 Expression,Alone,1.0
same,ALDOA Expression,Alone,1.0
same,ANKRD17 Expression,Alone,−1.0
same,APEX1 Expression,Alone,1.2
same,APEX2 Expression,Alone,−1.1
same,APOE Expression,Alone,1.0
same,ATF2 Expression,Alone,1.1
same,ATIC Expression,Alone,1.0
same,ATM Expression,Alone,1.2
same,ATR Expression,Alone,1.2
same,ATRX Expression,Alone,1.0
same,ATXN3 Expression,Alone,−1.1
same,B2M Expression,Alone,−1.0
same,BARD1 Expression,Alone,1.4
same,BAX Expression,Alone,1.3
same,BCL2 Expression,Alone,1.0
same,BLM Expression,Alone,1.0
same,BPNT1 Expression,Alone,−1.2
same,BRCA1 Expression,Alone,−1.0
same,BRCA2 Expression,Alone,1.1
same,BRIP1 Expression,Alone,1.0
same,BTG2 Expression,Alone,1.0
same,CASP2 Expression,Alone,1.0
same,CASP9 Expression,Alone,−1.0
same,CCNH Expression,Alone,−1.1
same,CDA Expression,Alone,−1.5
same,CDK7 Expression,Alone,1.0
same,CDKN1A Expression,Alone,1.2
same,CDKN2A Expression,Alone,1.0
same,CETN2 Expression,Alone,1.1
same,CHEK1 Expression,Alone,−1.5
same,CHEK2 Expression,Alone,1.1
same,CHUK Expression,Alone,1.0
same,CIB1 Expression,Alone,1.0
same,CIDEA Expression,Alone,1.3
same,CIDEB Expression,Alone,−1.2
same,CLK1 Expression,Alone,1.0
same,CREBBP Expression,Alone,−1.0
same,CRY1 Expression,Alone,1.0
same,CRY2 Expression,Alone,−1.1
same,CSF2 Expression,Alone,2.4
same,CTPS Expression,Alone,1.0
same,CYP19A1 Expression,Alone,1.4
same,DCLRE1C Expression,Alone,1.0
same,DDB1 Expression,Alone,1.9
same,DDB2 Expression,Alone,1.0
same,DDC Expression,Alone,1.0
same,DDIT3 Expression,Alone,1.1
same,DHFR Expression,Alone,1.0
same,DKC1 Expression,Alone,1.0
same,DMC1 Expression,Alone,1.1
same,DPYS Expression,Alone,1.1
same,DUT Expression,Alone,1.5
same,E2F1 Expression,Alone,−1.5
same,E2F2 Expression,Alone,−1.1
same,E2F3 Expression,Alone,−1.5
same,ENTPD4 Expression,Alone,1.1
same,ERCC1 Expression,Alone,1.2
same,ERCC2 Expression,Alone,1.0
same,ERCC3 Expression,Alone,−1.0
same,ERCC4 Expression,Alone,−1.1
same,ERCC5 Expression,Alone,1.0
same,ERCC6 Expression,Alone,1.4
same,ERCC8 Expression,Alone,−1.1
same,ERH Expression,Alone,1.0
same,EXO1 Expression,Alone,1.1
same,FANCA Expression,Alone,1.0
same,FANCC Expression,Alone,−1.0
same,FANCF Expression,Alone,−1.1
same,FANCG Expression,Alone,1.1
same,FEN1 Expression,Alone,−1.0
same,FPGS Expression,Alone,1.2
same,GADD45A Expression,Alone,−1.1
same,GADD45G Expression,Alone,1.0
same,GAPDH Expression,Alone,−1.1
same,GDA Expression,Alone,1.0
same,GH1 Expression,Alone,1.0
same,GML Expression,Alone,−1.3
same,GMPR Expression,Alone,1.0
same,GTF2H1 Expression,Alone,1.1
same,GTF2H2 Expression,Alone,−1.2
same,GTF2H3 Expression,Alone,1.0
same,GTF2H4 Expression,Alone,−1.4
same,GTSE1 Expression,Alone,−1.1
same,HK1 Expression,Alone,−1.1
same,HLA-DRA Expression,Alone,1.0
same,HPRT1 Expression,Alone,1.2 and 1.1
same,HSP90AB1 Expression,Alone,1.1
same,HSPA1A Expression,Alone,1.4
same,HSPA1L Expression,Alone,1.0
same,HTRA1 Expression,Alone,1.1
same,HUS1 Expression,Alone,1.0
same,IFI44 expression,Alone,−1.6
same,IGF1 Expression,Alone,1.0
same,IGF2 Expression,Alone,1.0
same,IGHMBP2 Expression,Alone,1.1
same,IHPK3 Expression,Alone,1.1
same,IL1A Expression,Alone,−1.0
same,IL6 Expression,Alone,−1.0
same,IL10 Expression,Alone,1.1
same,INPPL1 Expression,Alone,−1.2
same,JUN Expression,Alone,1.0
same,KRAS Expression,Alone,−1.2
same,LIG1 Expression,Alone,1.0
same,LIG3 Expression,Alone,1.0
same,LIG4 Expression,Alone,1.0
same,LTA Expression,Alone,−1.1
same,MAP2K6 Expression,Alone,1.0
